Reference: publication PMC7823780 (Viruses, 2021)

Legend:
CV-B4 = test: Plaque reduction assay CV-B4; assay type: cell-based, human enterovirus B; conditions: Enterovirus B, CVB4; 50% reduction of plaque number; read-out: EC50 CV-B4
[1] = Cytotoxicity assay, MTT, mock-infected MDBK; assay type: cell-based; conditions: bovine, mock-infected MDBK cells
Echo9 = test: Plaque reduction assay Echo9; assay type: cell-based, human enterovirus B; conditions: Enterovirus B; 50% reduction of plaque number, LLC-MK2 cells
[2] = Cytotoxicity assay, MTT, mock-infected HeLa; assay type: cell-based; conditions: human, mock-infected HeLa cells
[3] = Cytotoxicity assay, MTT, mock-infected Vero-76; assay type: cell-based; conditions: Cercopithecus aethiops, mock-infected Vero-76 cells; mock-infected Vero-76, MTT; value printed without *
[4] = Cytotoxicity assay, MTT, mock-infected BHK-21; assay type: cell-based; conditions: Syrian hamster, mock-infected BHK-21 cells; mock-infected BHK-21, MTT
EV-D68 = test: Inhibition of EV-D68-induced cytopathogenicity in HeLa cells (MTT); assay type: cell-based, human enterovirus D 68 strain Fermon; conditions: for EC50: Enterovirus D, EVD68, m.o.i. 0.01
CV-B5 = test: Plaque reduction assay CV-B5; assay type: cell-based, human enterovirus B; conditions: Enterovirus B, CVB5; 50% reduction of plaque number; read-out: EC50 CV-B5
[5] = Cytotoxicity assay, mock-infected LLC-MK2; assay type: cell-based; conditions: Macaca mulatta, mock-infected LLC-MK2 cells, mock-infected LLC-MK2, MTT
CV-B3 = test: Plaque reduction assay CV-B3; assay type: cell-based, human enterovirus B; conditions: Enterovirus B, CVB3; 50% reduction of plaque number; read-out: EC50 CV-B3
PV-1 = test: microbe, parasite or virus in culture; assay type: cell-based; conditions: Enterovirus C, read-out: EC50 PV-1

Row | Structure (SMILES) | EC50 (CV-B4) | CC50 [1] | EC50 (Echo9) | CC50 at 4 days [2] | CC50 [3] | CC50 [4] | EC50 (EV-D68) | EC50 (CV-B5) | CC50 at 5 days [5] | EC50 (CV-B3) | EC50 (PV-1) | EC50 EV-D68 (EV-D68; m.o.i. 0.01)
1 | CC(C)c1ccc(-c2nc3cc(F)ccc3[nH]2)cc1 [Compound 4a, 5-Fluoro-2-(4-Isopropylphenyl)-1H-Benzo[d]imidazole] | > 100 µM | > 100 µM | > 29.5 µM | > 100 µM | > 100 µM | > 100 µM | > 100 µM | > 100 µM | 29.5 µM | > 100 µM | ≥ 100 µM | 
2 | CC(C)(C)c1ccc(-c2nc3cc(F)ccc3[nH]2)cc1 [Compound 4b, 2-(4-(Tert-Butyl)phenyl)-5-Fluoro-1H-Benzo[d]imidazole] | > 100 µM | > 100 µM | > 100 µM | > 100 µM | > 100 µM | > 100 µM | > 100 µM | > 100 µM | > 100 µM | > 100 µM | 20 µM | 
3 | CC(C)c1ccc(-c2nc3cc(F)c(F)cc3[nH]2)cc1 [Compound 5a, 5,6-Difluoro-2-(4-Isopropylphenyl)-1H-Benzo[d]imidazole] | > 100 µM | > 100 µM | > 100 µM | > 100 µM | > 100 µM | > 100 µM | > 100 µM | > 100 µM | 100 µM | > 100 µM | 12 µM | not active
4 | CC(C)(C)c1ccc(-c2nc3cc(F)c(F)cc3[nH]2)cc1 [Compound 5b, 2-(4-(Tert-Butyl)phenyl)-5,6-Difluoro-1H-Benzo[d]imidazole] | > 100 µM | > 100 µM | > 100 µM | > 100 µM | > 100 µM | > 100 µM | 4 µM | > 100 µM | > 100 µM | > 100 µM | 10 µM | 
5 | C[C@@]1(O)[C@H](O)[C@@H](CO)O[C@H]1n1ccc(N)nc1=O [NM 107, 2′-C-methylcytidine, reference compound] | 29 µM |  |  |  | > 100 µM |  |  |  |  |  | 6 µM | 
6 | Cc1cc(CCCOc2c(C)cc(-c3noc(C(F)(F)F)n3)cc2C)on1 [Plc, Pleconaril, reference compound] |  |  | 0.1 µM |  | > 100 µM |  | 0.3 µM | 2 ± 0.5 µM | > 100 µM | 2 ± 0.005 µM |  | 
7 | CCOC(=O)/C=C/[C@H](C[C@@H]1CCNC1=O)NC(=O)[C@@H](CC(=O)[C@@H](NC(=O)c1cc(C)on1)C(C)C)Cc1ccc(F)cc1 [Rup, Rupintrivir, reference compound] |  |  |  |  | > 100 µM |  |  |  |  |  | 0.07 µM | 
